Laboratory results from article PMC11424896, “Overcoming drug resistance of cancer cells by targeting the FGF1/FGFR1 axis with honokiol or FGF ligand trap” (Frontiers in Pharmacology, 2024).

Molecular target: T1, full-length FGFR1c (Homo sapiens, UniProt P11362)
T1 construct: gene FGFR1; full-length FGFR1c, pcDNA3.1, stably transfected in U2OS cells (U2OSR1)
Assay: Western blot of FGFR phosphorylation (pTyr653/[…]) in U2OSR1 cells
Type: cell-based
Conditions: 30 µM honokiol pre-treatment, then 10 ng/mL FGF1 with heparin, 15 min; serum-starved cells

T1 sequence (P11362 22-822): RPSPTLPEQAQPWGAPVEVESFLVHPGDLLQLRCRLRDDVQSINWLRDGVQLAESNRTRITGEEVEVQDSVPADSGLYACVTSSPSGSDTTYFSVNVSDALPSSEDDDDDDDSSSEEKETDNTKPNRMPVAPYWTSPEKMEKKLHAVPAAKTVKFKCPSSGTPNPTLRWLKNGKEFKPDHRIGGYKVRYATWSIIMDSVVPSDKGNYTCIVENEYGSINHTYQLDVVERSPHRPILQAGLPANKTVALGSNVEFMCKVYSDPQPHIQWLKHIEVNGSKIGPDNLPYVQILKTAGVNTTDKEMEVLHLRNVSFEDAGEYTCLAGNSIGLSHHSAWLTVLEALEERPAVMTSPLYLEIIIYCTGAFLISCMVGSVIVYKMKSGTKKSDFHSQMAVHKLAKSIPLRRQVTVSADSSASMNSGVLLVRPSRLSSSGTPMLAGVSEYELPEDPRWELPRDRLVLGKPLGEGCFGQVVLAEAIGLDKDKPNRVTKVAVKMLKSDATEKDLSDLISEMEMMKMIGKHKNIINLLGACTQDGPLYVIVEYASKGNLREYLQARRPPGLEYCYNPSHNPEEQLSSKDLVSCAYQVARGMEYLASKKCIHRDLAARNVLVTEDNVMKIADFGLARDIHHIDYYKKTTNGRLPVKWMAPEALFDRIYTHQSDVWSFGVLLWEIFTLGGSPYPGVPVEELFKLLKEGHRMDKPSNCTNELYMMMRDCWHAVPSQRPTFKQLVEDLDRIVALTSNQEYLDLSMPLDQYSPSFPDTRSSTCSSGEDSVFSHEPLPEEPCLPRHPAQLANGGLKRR

`C=CCc1ccc(O)c(-c2ccc(O)c(CC=C)c2)c1` [honokiol] was tested, and the “p-FGFR inhibition at 30 μM” value was “in cells treated with honokiol, FGF1 did not induce activation of either FGFR”.
